Results from ChEMBL document CHEMBL1123219, “Functional cholesteryl binding agents: synthesis, characterization, and evaluation of antibody binding to modified phospholipid vesicles” (J Med Chem, 1986).

Legend:
Homo sapiens [1] = organism: Homo sapiens; test: Compound was tested for human IgG protein binding at 1 mg/mL
Homo sapiens [2] = organism: Homo sapiens; test: Compound was tested for human IgG protein stability at 100 ug/mL; format: functional
Homo sapiens [3] = organism: Homo sapiens; test: Compound was tested for human IgG protein binding at 100 ug/mL

Row | Structure (SMILES) | Binding (Homo sapiens [1]) | Stability (Homo sapiens [2]) | Binding (Homo sapiens [3])
1 | CC(C)CCCC(C)C1CCC2C3CC=C4CC(OCCCCCCNC(=O)c5cccc(N6C(=O)C=CC6=O)c5)CCC4(C)C3CCC12C (stereo not drawn) | 39.5% | 86% | 61.1%
2 | CC(C)CCCC(C)C1CCC2C3CC=C4CC(OCCCCCCN=C=S)CCC4(C)C3CCC12C (stereo not drawn) | 31.9% | 86.5% | 55.9%
3 | CC(C)CCCC(C)C1CCC2C3CC=C4CC(OCCCCCCC(=O)ON5C(=O)CCC5=O)CCC4(C)C3CCC12C (stereo not drawn) | 46% | 91% | 69.5%
4 | CC(C)CCCC(C)C1CCC2C3CC=C4CC(OCCCCCCSCc5ccc(C(=O)ON6C(=O)CCC6=O)cc5)CCC4(C)C3CCC12C (stereo not drawn) | 43.3% | 91.8% | 60.4%
5 | CC(C)CCCC(C)C1CCC2C3CC=C4CC(OCCCCCC(=O)ON5C(=O)CCC5=O)CCC4(C)C3CCC12C (stereo not drawn) | 40.3% | 94.1% | 77.5%
6 | CC(C)CCCC(C)C1CCC2C3CC=C4CC(OCCCCCCO)CCC4(C)C3CCC12C (stereo not drawn) | 31.9% | 86.4% | 58.7%
